Test results reported in paper PMC8055447 (Journal of medicinal chemistry, 2019).

Legend:
[1] = tested on: EV-D68 viral capsid protein VP1 expression; assay: Immunofluorescence imaging of viral capsid protein VP1 in infected RD cells; type: cell-based; settings: 9 hpi; for VP1 protein expression (immunofluorescence imaging): 1 μM, US/KY/14-18953, MOI = 1
[2] = tested on: EV-D68 viral capsid protein VP1 expression; assay: Western blot of viral capsid protein VP1 in infected RD cells; type: cell-based; settings: 9 hpi, US/KY/14-18953, MOI = 1
[3] = tested on: sodium channels; settings: from 2 μM to 50 μM, rat DRG neurons, overnight incubation, veratridine 30 μM
[4] = tested on: EV-D68 US/KY/14-18953 virus; assay: Viral CPE assay, EV-D68 US/KY/14-18953 in RD cells; type: cell-based, enterovirus D68 (EV-D68); settings: EV-D68 US/KY/14-18953, RD cells

Row | SMILES | VP1 protein expression (immunofluorescence imaging) [1] | VP1 expression (western blot) ([2]; 1 μM) | inhibition of sodium current conductance [3] | SI (selectivity index, CC50/EC50) [4] | fluorescent signal of VP1 (immunofluorescence imaging) ([1]; 3 μM, US/KY/14-18953, MOI = 1, vs DMSO control) | VP1 expression (western blot) ([2]; 3 μM)
1 | CN(C)CCNC(=O)c1cc(-c2ccccc2)nc2ccccc12 [Compound 10a, N-[2-(dimethylamino)ethyl]-2-phenylquinoline-4-carboxamide] | completely blocked | completely blocked | minimal to no effect |  |  | 
2 | CN(C)CCNC(=O)c1cc(-c2cccs2)nc2ccccc12 [Compound 12a, N-[2-(dimethylamino)ethyl]-2-(thiophen-2-yl)quinoline-4-carboxamide] | completely blocked | completely blocked |  | > 600 |  | 
3 | O=C(NCCN1CCCC1)c1cc(-c2cccs2)nc2ccccc12 [Compound 12c, N-[2-(pyrrolidin-1-yl)ethyl]-2-(thiophen-2-yl)quinoline-4-carboxamide] | completely blocked | completely blocked |  | > 600 |  | 
4 | CCCCOc1cc(C(=O)NCCN(CC)CC)c2ccccc2n1 [Dibucaine, dibucaine, reference compound] |  |  |  |  | significantly reduced | nearly completely inhibited
